Source: patent US8735396B2, “Benzofuranyl derivatives” (Pfizer Inc., priority 2009, dated 2014)

Target: T1, Full-length glucokinase (beta cell isoform) (Homo sapiens, UniProt P35557)
T1 construct: Full-length glucokinase (beta cell isoform) was His-tagged at N-terminus; His tag (N); made in house; host or cells: E. coli BL21(DE3) carrying the pBCGK vector
T1 sequence (P35557 1-465): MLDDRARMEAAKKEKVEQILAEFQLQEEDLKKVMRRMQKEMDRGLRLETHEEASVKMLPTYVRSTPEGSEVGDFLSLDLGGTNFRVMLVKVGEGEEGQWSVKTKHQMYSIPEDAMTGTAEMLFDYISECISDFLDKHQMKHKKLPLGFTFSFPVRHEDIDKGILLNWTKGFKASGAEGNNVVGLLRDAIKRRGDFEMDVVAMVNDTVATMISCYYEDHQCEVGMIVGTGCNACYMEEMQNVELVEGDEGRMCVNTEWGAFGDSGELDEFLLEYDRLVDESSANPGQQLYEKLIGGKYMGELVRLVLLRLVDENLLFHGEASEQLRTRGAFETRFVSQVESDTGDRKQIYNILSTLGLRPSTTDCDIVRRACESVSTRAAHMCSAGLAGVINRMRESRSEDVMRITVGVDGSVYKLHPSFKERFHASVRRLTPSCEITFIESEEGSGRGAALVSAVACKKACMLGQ
Assay: In vitro glucokinase activation assay (PK/LDH coupled, NADH depletion at 340 nm)
Type: biochemical
Settings: 5 mM glucose, 2.5 mM ATP; for EC50: pH 7.1, room temperature; for Emax: pH 7.1, (Va/Vo−1)×100 fitted, read-out: Maximum Activation (%)
Experimental: Full-length glucokinase (beta cell isoform) was His-tagged at N-terminus and purified by a Ni column followed by size exclusion chromatography. A 320 mL column was packed in house using Superdex75 (Amersham Pharmacia, Carlsbad, Calif.) preparation grade resin. Glucose was obtained from Calbiochem (San Diego, Calif.) and other reagents were purchased from Sigma-Aldrich (St. Louis, Mo.).
All assays were performed in a Corning 384-well plate using Spectramax PLUS spectrophotometer (Molecular Devices, Sunnyvale, Calif.) at room temperature. The final assay volume was 40 μL. The buffer conditions used in this assay were as follows: 50 mM HEPES, 5 mM glucose, 2.5 mM ATP, 3.5 mM MgCl2, 0.7 mM NADH, 2 mM dithiothreitol, 1 unit/mL pyruvate kinase/lactate dehydrogenase (PK/LDH), 0.2 mM phosphoenolpyruvate, and 25 mM KCl. The buffer pH was 7.1. The test compound in dimethylsulfoxide solution was added to the buffer and mixed by a plate shaker for 7.5 minutes.
Glucokinase was added to the buffer mixture to initiate the reaction in the presence and absence of compound. The reaction was monitored by absorbance at 340 nm due to the depletion of NADH. The initial reaction velocity was measured by the slope of a linear time course of 0-300 seconds. The percentage of maximum activation was calculated by the following equation: % Maximum Activation=(Va/Vo−1)×100; wherein each of Va and Vo is defined as the initial reaction velocity in the presence and absence of the tested compound, respectively.
The glucokinase activities were measured as a function of compound concentrations.

SMILES	EC50	Emax
Cc1cc2c(Oc3cnc(C(=O)N(C)C)nc3)cc(C(=O)Nc3ccn(C)n3)cc2o1 [Example 4, N,N-dimethyl-5-(2-methyl-6-((1-methyl-1H-pyrazol-3-yl)-carbamoyl)benzofuran-4-yloxy)pyrimidine-2-carboxamide]	629 nM	63.9%
CCN(C)C(=O)c1ncc(Oc2cc(C(=O)Nc3ccn(C)n3)cc3oc(C)cc23)cn1 [Example 6, N-ethyl-N-methyl-5-(2-methyl-6-((1-methyl-1H-pyrazol-3-yl)carbamoyl)benzofuran-4-yloxy)pyrimidine-2-carboxamide]	382 nM	54.1%
CCN(C)C(=O)c1cnc(Oc2cc(C(=O)Nc3cnc(C)cn3)cc3oc(C)cc23)cn1 [Example 7, N-ethyl-N-methyl-5-(2-methyl-6-((5-methylpyrazin-2-yl)carbamoyl)-benzofuran-4-yloxy)pyrazine-2-carboxamide]	474 nM	63.4%

The remaining lines, values ahead:

EC50	Emax	SMILES
546 nM	57.6%	CCN(C)C(=O)c1ncc(Oc2cc(C(=O)Nc3cnc(C)cn3)cc3oc(C)cc23)cn1 [Example 5, N-ethyl-N-methyl-5-(2-methyl-6-((5-methylpyrazin-2-yl)carbamoyl)benzofuran-4-yloxy)pyrimidine-2-carboxamide]
462 nM	69.5%	COc1cnc(NC(=O)c2cc(Oc3cnc(C(=O)N(C)C)nc3)c3cc(C)oc3c2)cn1 [Example 3, 5-(6-((5-methoxypyrazin-2-yl)carbamoyl)-2-methylbenzofuran-4-yloxy)-N,N-dimethylpyrimidine-2-carboxamide]
